Columns and labels:
[1] = tested on: patients with severe sepsis; experiment: ETASS multicenter randomized controlled trial: mortality, prognosis and SOFA in severe sepsis; type: in vivo, human
Protocol: We did a prospective, controlled, single-blinded, multi-center randomized clinical trial, which was conducted in the ICUs of six tertiary, teaching hospitals. The ethics committee of the First Affiliated Hospital of Sun Yat-sen University approved the protocol (200815). Written informed consents were obtained from the patients or next of kin for patients unable to consent. The trial was registered with ClinicalTrials.gov, number NCT00711620.
From May 12, 2008 to Dec. 22, 2010 patients diagnosed with severe sepsis admitted to ICUs were enrolled in the trial. The criteria for severe sepsis were a modification of those defined by Bernard et al. (see Additional file 1).
To reduce the impact on the results from heterogeneity of severe sepsis and inter-hospital variation in patient sources as much as possible, stratification by investigative center in combination with computer-generated block randomization (block size=8) according to the sequence of recruitment was employed in the enrollment process. The method of randomization and block size were blinded until the data analysis was finished completely. Clinicians who enrolled the subjects were not involved in data collection. Eligible patients were randomly assigned in a 1:1 ratio in each hospital with four in each block assigned to receive the study drug and the other four to the control group after telephone verification through a randomization center. The allocation sequence was concealed from the researchers. To prevent advance knowledge of treatment assignment and subversion of the allocation sequence, trial entry sheet of the case report form (CRF) was filled out and informed consent was obtained before disclosing the unique participant number and the allocated group; the unique number generated could not be changed and deleted afterward. We used normal saline as placebo. Patients were blinded to the treatment assignments. All statistical analysis was done with masking maintained.
(§1) In the Tα1 group, patients received subcutaneous injections of 1.6 mg Tα1 (ZADAXIN™, SciClone Pharmaceuticals, Foster City, CA, USA) twice per day for five consecutive days, then once per day for two consecutive days. Prior to administration, the lyophilized powder is to be reconstituted with 1 ml of the provided diluent (sterile water for injection). After reconstitution, the final concentration of Tα1 is 1.6 mg/mL. In the control group, patients received subcutaneous injections of 1 mL normal saline twice per day for five consecutive days, then once per day for two consecutive days. According to trial protocol, therapy had to be started within 4 hrs after enrollment.
The treating physicians dictated patient care to current international guidelines, including adequate empiric antibiotic therapy based on current recommendations, ventilation regimen (pressure control mode), blood glucose control, resuscitation and hemodynamic support, organ support, sedation or analgesia as needed and adequate nutrition. Empirical antibiotic therapy was considered adequate when at least one effective drug was included in the empirical antibiotic treatment within the first 24 hrs of the admission to the ICU and the optimal dose and the correct route of administration were in accordance with medical standards and in ICU survivors without microbiologically detected microorganism in bloodstream or focus. When the empirical antibiotic therapy had to be changed after microbiological detection of microorganism, it was considered inadequate, whereas in non-survivors without microbiologically detected microorganism in bloodstream or focus it was considered not evaluable.
The primary efficacy end point was death from any cause and was assessed 28 days after the initiation of treatment assignment. […]

CD4+/CD8+ = experiment: ETASS trial: CD4+/CD8+ ratio; type: in vivo, human
Protocol: as §1
(§2) The primary efficacy end point was death from any cause and was assessed 28 days after the initiation of treatment assignment. Secondary outcomes included dynamic changes of Sequential Organ Failure Assessment (SOFA), CD 4+/CD8+ and monocyte human leukocyte antigen-DR (mHLA-DR) expression measured on day 0 (the day of enrollment), 3 and 7 in both groups. All mHLA-DR measurements were done in the center laboratory of the First Affiliated Hospital of Sun Yat-sen University. 1 ml unprocessed EDTA whole blood was stored on ice at once after drawing and was transferred to the center laboratory as soon as possible to guarantee measurement within 3 hrs after blood drawing. The method of measuring mHLA-DR was mentioned in our previous paper. Once patients were enrolled, data including demographic characteristics, microbiological findings (primary infection source and the identified microorganisms) and comorbidities were collected when available. The following clinical parameters were recorded on specific days after enrollment: on day 0, the severity as assessed by the Acute Physiology and Chronic Health Evaluation II (APACHE II); on day 0, 3, 7, SOFA, hematologic and biochemical findings, results of mHLA-DR, CD4+/CD8+ tests. The time of the first organ dysfunction was retrospectively estimated according to objective data such as blood gas analysis when the patient was enrolled.
(§3) Based on a previous study, a sample size of 334 patients was required to show a reduction in 28-day mortality rate from 50% to 35% by Tα1 treatment, with a two-sided test (a error=5%; power=80%). Considering a possible drop-out rate of 10%, the trial would need to enroll 368 patients in total. Demographic data, outcome data and other laboratory parameters were summarized by frequency for categorical variables and mean±standard deviation (SD) or median with interquartile range (IQR) for continuous variables. Proportions were compared with chi-square test or Fisher's exact test. Continuous variables were tested by means of t test with normal distribution or Wilcoxon rank-sum test with non-normal distribution. The comparison of primary outcome between two groups was performed by means of Cochran-Mantel-Haenszel test, in which patients were stratified on a number of baseline covariates such as mHLA-DR, scores of APACHE and SOFA, surgical and cancer history, sex and age. The corresponding relative risks (RRs) with 95% confidence intervals (Cis) were computed with logit-adjusted method. Kaplan-Meier estimates without adjustment for baseline covariates were used for survival time analysis, and log-rank tests for comparison. To estimate mean changes from baseline in laboratory parameters, linear mixed models for repeated measures were employed, taking into account the clustering of participating centers and repeated measurements within patients. This model included terms for baseline measurement, treatment group, visit, and treatment×visit interaction. Least-squares means with 95% CIs were reported. We also analyzed the efficacy parameters of the study drug in different prespecified subgroups. The heterogeneity of treatment effects among subgroups was assessed with use of interaction tests. […]

[2] = tested on: patients with severe sepsis; experiment: ETASS trial: safety and tolerability assessment; type: in vivo, human; settings: for drug-related serious/severe adverse events: assessed by the investigator
Protocol: as §1
Safety and tolerability assessment of Tα1 (see Additional file 3) was based on the comparison of all available information obtained from the two groups with respect to detected outliers in laboratory safety data, drug-related serious adverse events (assessed by the investigator) and deterioration of organ and system function (assessed by the individual SOFA component scoring for respiratory, cardiovascular, hepatic, coagulation, renal and nervous systems that arose during the treatment).

[3] = tested on: mHLA-DR (monocyte human leukocyte antigen-DR); experiment: ETASS trial: monocyte HLA-DR expression (% of positive monocytes); type: in vivo
Protocol: as §1, §2, §3

[4] = 1.6 mg s.c. twice per day 5 days, then once per day 2 days, n = 181
[5] = during the 28-day study period, n = 181

Which results are given for thymosin alpha 1 [Tα1]?
28-day mortality (death from any cause), number of patients [1, 4]: 47; 28-day mortality (death from any cause), rate [1, 4]: 26.0%; 28-day mortality (death from any cause), rate ([1]; 1.6 mg s.c. twice per day 5 days, then once per day 2 days, n = 181, listed as Talpha1): 26.0%; 28-day mortality (death from any cause), rate ([1]; 1.6 mg s.c. twice per day 5 days, then once per day 2 days, n = 181, listed as TαI): (26.0%); survival after enrollment vs control group (Kaplan-Meier, log rank) ([1]; 28 days, log rank P=0.049): survived longer; SOFA score, Mean (95% CI) ([1]; Day 0 (day of enrollment)): 7.9; SOFA score, Mean (95% CI) ([1]; Day 3): 6.1; SOFA score, Mean (95% CI) ([1]; Day 7): 5.3; SOFA score ΔDay 3, between groups difference ([1]; Tα1 group vs control group): −0.5; SOFA score ΔDay 7, between groups difference ([1]; Tα1 group vs control group): −0.7; SOFA score change ΔDay 3 ([1]; day 3 compared with day 0): −1.8; SOFA score change ΔDay 7 ([1]; day 7 compared with day 0): −2.5; ICU-free days, Median (95% CI) [1, 5]: 10.0 days; Ventilation-free days, Median (95% CI) [1, 5]: 18.0 days; relative risk of death in hospital compared to the control group ([1]; in vivo): 0.73; Duration of ventilation, Median (IQR) ([1]; n = 181): 7.0; ICU stay, Median (IQR) ([1]; n = 181): 11.0; In-ICU mortality, number of patients ([1]; n = 181): 35; In-ICU mortality, rate ([1]; n = 181): (19.3%); In-hospital mortality, number of patients ([1]; n = 181): 52; In-hospital mortality, rate ([1]; n = 181): 28.7%; In-hospital mortality, rate ([1]; n = 181, listed as TαI): (28.7%); relative risk of death, non-cancerous patients ([1]; non-cancerous patients): 0.91; relative risk of death within 28 days as compared to the control group ([1]; non-stratified analysis): 0.74; relative risk of death compared to the control group, subgroup of patients with cancer ([1]; patients with cancer): 0.46; primary end point in prespecified subgroups (APACHE II, SOFA, mHLA-DR, surgery or cancer history, sex, age) ([1]; stratified analyses): tended to improve outcome but without statistical significance; absolute reduction in 28-day mortality ([1]; vs control group): 9.0%; decreasing tendency within 7 days in SOFA score ([1]; vs control group): seemed to favor the Tα1 group; difference between the two groups in ICU mortality, ventilation-free days, ICU-free days, length of ICU stay and duration of mechanical ventilation ([1]; vs control group): no significant difference; ratio of CD4+/CD8+ during the 7 days (CD4+/CD8+; 7 days): remained unchanged; CD4+/CD8+, Mean (95% CI) (CD4+/CD8+; Day 0 (day of enrollment)): 2.5; CD4+/CD8+, Mean (95% CI) (CD4+/CD8+; Day 3): 2.7; CD4+/CD8+, Mean (95% CI) (CD4+/CD8+; Day 7): 2.5; CD4+/CD8+ ΔDay 3, between groups difference (CD4+/CD8+; Tα1 group vs control group): 0; CD4+/CD8+ ΔDay 7, between groups difference (CD4+/CD8+; Tα1 group vs control group): 0.1; CD4+/CD8+ change ΔDay 3 (CD4+/CD8+; day 3 compared with day 0): 0.3; CD4+/CD8+ change ΔDay 7 (CD4+/CD8+; day 7 compared with day 0): 0.1; drug-related serious/severe adverse events [2]: no Tα1-related severe adverse event (SAE) was reported; drug-related serious/severe adverse events ([2]; listed as Talpha1): No serious drug-related adverse event; drug-related serious/severe adverse events ([2]; listed as Thymosin alpha 1): not observed; patients with impairment (SOFA component score deterioration): Cardiovascular system, frequency in parentheses ([2]; during the treatment, n = 181): (15.5); patients with impairment (SOFA component score deterioration): Cardiovascular system, number ([2]; during the treatment, n = 181): 28; patients with impairment (SOFA component score deterioration): Coagulation system, frequency in parentheses ([2]; during the treatment, n = 181): (26.5); patients with impairment (SOFA component score deterioration): Coagulation system, number ([2]; during the treatment, n = 181): 48; patients with impairment (SOFA component score deterioration): Hepatic system, frequency in parentheses ([2]; during the treatment, n = 181): (11.6); patients with impairment (SOFA component score deterioration): Hepatic system, number ([2]; during the treatment, n = 181): 21; patients with impairment (SOFA component score deterioration): Nervous system, frequency in parentheses ([2]; during the treatment, n = 181): (7.7); patients with impairment (SOFA component score deterioration): Nervous system, number ([2]; during the treatment, n = 181): 14; patients with impairment (SOFA component score deterioration): Renal system, frequency in parentheses ([2]; during the treatment, n = 181): (14.4); patients with impairment (SOFA component score deterioration): Renal system, number ([2]; during the treatment, n = 181): 26; patients with impairment (SOFA component score deterioration): Respiratory system, frequency in parentheses ([2]; during the treatment, n = 181): (13.3); patients with impairment (SOFA component score deterioration): Respiratory system, number ([2]; during the treatment, n = 181): 24; difference vs control in frequency of outlying laboratory values and all-cause organ or system impairment ([2]; in vivo): no statistically significant differences; treatment discontinuation due to intolerance or adverse events ([2]; in vivo): no treatment was discontinued; patients with Hypoglycemia, frequency in parentheses ([2]; n = 181): (4.4); patients with Hypoglycemia, number ([2]; n = 181): 8; patients with outlying values: ALT (U/L), frequency in parentheses ([2]; n = 181): (21.0); patients with outlying values: ALT (U/L), number ([2]; n = 181): 38; patients with outlying values: AST (U/L), frequency in parentheses ([2]; n = 181): (23.8); patients with outlying values: AST (U/L), number ([2]; n = 181): 43; patients with outlying values: Creatinine (mmol/L), frequency in parentheses ([2]; n = 181): (9.9); patients with outlying values: Creatinine (mmol/L), number ([2]; n = 181): 18; patients with outlying values: Hemoglobin (g/L), frequency in parentheses ([2]; n = 181): (14.9); patients with outlying values: Hemoglobin (g/L), number ([2]; n = 181): 27; patients with outlying values: Platelets 10^3/mm^3), frequency in parentheses ([2]; n = 181): (37.0); patients with outlying values: Platelets 10^3/mm^3), number ([2]; n = 181): 67; mHLA-DR, Mean (95% CI) ([3]; Day 0 (day of enrollment)): 51.8%; mHLA-DR, Mean (95% CI) ([3]; Day 3): 59.8%; mHLA-DR, Mean (95% CI) ([3]; Day 7): 68.9%; mean difference in mHLA-DR changes between the two groups, day 3 ([3]; Tα1 group vs control group): 3.9%; mean difference in mHLA-DR changes between the two groups, day 7 ([3]; Tα1 group vs control group): 5.8%; mHLA-DR mean change from baseline ΔDay 3 ([3]; day 3 compared with day 0): 8.0%; mHLA-DR mean change from baseline ΔDay 7 ([3]; day 7 compared with day 0): 17.0%

— patent US20240091314A1, “USE OF THYMOSIN ALPHA FOR THE TREATMENT OF SEPSIS” (SciClone Pharmaceuticals, Inc., priority 2012, published 2024)
